Experimental data taken from patent US20110097324A1, “COMPOSITIONS AND METHODS FOR MODULATING NICOTINIC/NMDA RECEPTOR FUNCTION” (CENTRE FOR ADDICTION AND MENTAL HEALTH, priority 2008, published 2011).

How the values were obtained:
NMDA receptor = format: cell-based, rat
[1] = molecular target: α7-nAchR-NR2A interaction (Rattus norvegicus, UniProt Q00959+Q05941); format: cell-based
Procedure: To examine the effect of α7-nAchR activation on the interaction between α7-nAchR and NMDA receptors, we examined the ability of antibody against NR2A subunit to co-precipitate with the α7-nAchR in hippocampal primary culture treated with 1 mM choline or choline/NMDA (50 μM).

α7 nAChR: NR2A complex = conditions: in vivo, 6 mg/kg/day
Procedure: Thus, we pretreated rats with either nicotine or saline for 7 days subdermally (osmotic mini-pump, 6 mg/kg/day), and the expression of NR2A and α7 nAChR was examined in Western blot analysis.

CREB = format: cell-based, rat
Description: To confirm that α7 nAChR is responsible for the observed activation of CREB, we measured CREB activity in HEK-293 cells expressing α7 nAChR.

[2] = tested on: cultured hippocampal neurons; format: cell-based, rat; conditions: for mEPSC amplitude 30 min after treatment: glycine 200 μM 3 min, choline 1 mM, AP5 100 μM
Procedure: Primary cultures from hippocampus were prepared from fetal Wistar rats (embryonic day 17-19) on Cell+ (Sarstedt) culture dishes as previously described in (10). The cultures were used for experiments on 12-15 d after plating.
Miniature excitatory postsynaptic currents (mEPSCs) were recorded from cultured hippocampal neurons 2 to 4 weeks days after plating under whole-cell patch clamp configuration (11). Electrodes (3-5 MΩ) were pulled from high lead pipettes (Corning 8161, Warner Instruments). Cells were voltage clamped at −70 mV. Access resistance is below 10 MΩ, recordings with access resistance varying more than 10% were rejected from analysis.
To determine whether activation of α7-nAchR is physiologically relevant in regulating synaptic strength, we examined the ability of α7-nAchR activation to modulate miniature excitatory postsynaptic currents (mEPSCs) during LTP in primary cultures of hippocampal neurons. mEPSCs in hippocampal neurons were recorded under whole-cell configuration. […] The cells were held at −70 mV to avoid potential interference by voltage-gated Ca^++ channels (12,13).

Sequence of α7-nAchR-NR2A interaction (Q05941 23-502, other chains not shown): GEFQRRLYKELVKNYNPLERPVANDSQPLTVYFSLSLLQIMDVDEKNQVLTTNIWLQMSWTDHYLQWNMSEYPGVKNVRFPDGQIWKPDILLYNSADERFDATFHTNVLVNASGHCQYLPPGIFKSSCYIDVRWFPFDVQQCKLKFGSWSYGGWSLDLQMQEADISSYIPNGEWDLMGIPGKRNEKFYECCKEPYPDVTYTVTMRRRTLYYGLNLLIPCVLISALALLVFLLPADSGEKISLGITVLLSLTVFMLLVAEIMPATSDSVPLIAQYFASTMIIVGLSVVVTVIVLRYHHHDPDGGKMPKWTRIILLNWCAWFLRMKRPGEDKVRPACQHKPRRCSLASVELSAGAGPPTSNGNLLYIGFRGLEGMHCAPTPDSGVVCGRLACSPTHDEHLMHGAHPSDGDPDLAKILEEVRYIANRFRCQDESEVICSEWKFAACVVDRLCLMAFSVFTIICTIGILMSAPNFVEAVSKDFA
Sequence of α7-nAchR-NR2A interaction (Q00959 20-1464, other chains not shown): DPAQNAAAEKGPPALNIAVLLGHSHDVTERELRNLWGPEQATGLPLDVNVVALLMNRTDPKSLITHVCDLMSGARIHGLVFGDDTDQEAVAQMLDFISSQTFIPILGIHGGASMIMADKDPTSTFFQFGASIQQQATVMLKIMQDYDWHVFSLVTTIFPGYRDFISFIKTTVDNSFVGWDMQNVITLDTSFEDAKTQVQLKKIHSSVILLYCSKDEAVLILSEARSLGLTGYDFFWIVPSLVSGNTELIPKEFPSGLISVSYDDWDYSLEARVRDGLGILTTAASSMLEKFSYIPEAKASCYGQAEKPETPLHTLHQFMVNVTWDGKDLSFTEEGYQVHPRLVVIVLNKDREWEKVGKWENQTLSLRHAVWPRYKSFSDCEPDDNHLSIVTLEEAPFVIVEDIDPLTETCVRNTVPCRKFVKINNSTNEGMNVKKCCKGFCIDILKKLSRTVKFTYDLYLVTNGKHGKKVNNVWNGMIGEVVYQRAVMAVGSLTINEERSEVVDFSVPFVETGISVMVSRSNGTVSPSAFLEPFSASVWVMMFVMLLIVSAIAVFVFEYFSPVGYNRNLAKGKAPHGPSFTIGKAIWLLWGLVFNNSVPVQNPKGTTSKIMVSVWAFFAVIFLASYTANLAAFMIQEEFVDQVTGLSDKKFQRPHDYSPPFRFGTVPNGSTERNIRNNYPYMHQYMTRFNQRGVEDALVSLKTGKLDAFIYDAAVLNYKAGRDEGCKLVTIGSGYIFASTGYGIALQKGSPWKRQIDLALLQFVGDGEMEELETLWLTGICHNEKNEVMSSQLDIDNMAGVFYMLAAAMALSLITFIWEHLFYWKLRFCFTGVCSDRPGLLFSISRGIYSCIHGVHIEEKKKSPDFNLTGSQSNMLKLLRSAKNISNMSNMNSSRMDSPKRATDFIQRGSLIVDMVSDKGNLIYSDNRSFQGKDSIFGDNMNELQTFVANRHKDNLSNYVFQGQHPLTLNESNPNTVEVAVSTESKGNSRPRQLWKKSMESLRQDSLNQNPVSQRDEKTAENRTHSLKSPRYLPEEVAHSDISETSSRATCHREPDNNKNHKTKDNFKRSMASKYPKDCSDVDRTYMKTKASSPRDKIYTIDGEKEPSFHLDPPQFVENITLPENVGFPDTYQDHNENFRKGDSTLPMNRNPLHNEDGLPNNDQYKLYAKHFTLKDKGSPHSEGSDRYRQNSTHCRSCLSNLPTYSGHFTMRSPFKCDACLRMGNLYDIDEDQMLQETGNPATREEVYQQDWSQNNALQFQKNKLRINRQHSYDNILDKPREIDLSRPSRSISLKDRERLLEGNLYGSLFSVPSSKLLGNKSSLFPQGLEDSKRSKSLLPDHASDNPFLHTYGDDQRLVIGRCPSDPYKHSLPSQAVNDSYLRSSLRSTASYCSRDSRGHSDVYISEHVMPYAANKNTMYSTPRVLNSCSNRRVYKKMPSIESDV

In the case of `C[C@]12N[C@H](Cc3ccccc31)c1ccccc12` [MK-801], the “block of enhancement of whole cell current induced by co-application of choline with NMDA” value (NMDA receptor) is reported as “can be blocked”.
In the case of `CN[C@H](CC(=O)O)C(=O)O` [NMDA, N-methyl-D-aspartate], the “α7-nAchR-NR2A interaction after treatment” value [1] is reported as “no significant effect”.
`CN1CCCC1c1cccnc1` (stereo not drawn) [nicotine] was tested, and the “expression of NR2A or α7 nAChR in rat hippocampus” value (α7 nAChR: NR2A complex) was “no significant difference” and the “α7 nAChR: NR2A complex formation in rat hippocampus” value (α7 nAChR: NR2A complex) was “significantly enhanced”.
In the case of `CCN1C[C@]2(COC(=O)c3ccccc3N3C(=O)C[C@H](C)C3=O)CC[C@H](OC)[C@@]34[C@@H]5C[C@H]6[C@H](OC)[C@@H]5[C@](O)(C[C@@H]6OC)[C@](O)([C@@H](OC)[C@H]23)[C@@H]14` [MLA], the “block of nicotine-enhanced CREB activity” value (CREB) is reported as “can be blocked”.
For `NCC(=O)O` [glycine], the “mEPSC amplitude 30 min after treatment” value [2] was 26.5+/−2.3 pA.
In the case of `NC(CCCP(=O)(O)O)C(=O)O` (stereo not drawn) [AP5], the “effect on amplitude of mEPSCs” value [2] is reported as “can be abolished”.
In the case of α-bungarotoxin, the “block of enhancement of whole cell current induced by co-application of choline with NMDA” value (NMDA receptor) is reported as “can abolish the choline induced upregulation of NMDA-mediated current”.
In the case of `C[N+](C)(C)CCO` [choline], the “mEPSC amplitude 30 min after treatment” value [2] is reported as 31.4+/−2.7 pA.
